Test results taken from patent US12054466B2, “Compounds for the treatment of clostridium difficile infection” (University of Notre Dame du Lac, priority 2016, dated 2024).
Values after ≈ are worked out from the molar mass of the structure shown. Read-outs that look alike come from different tables or passages of the source.

Columns and labels:
Type in all cases: cell-based
C. difficile ATCC43598 = experiment: MIC, broth microdilution; settings: Clostridioides difficile, C. difficile ATCC43598
C. difficile ATCC43255 = experiment: MIC, broth microdilution; settings: Clostridioides difficile, C. difficile ATCC43255
C. difficile BAA-1870 = experiment: MIC, broth microdilution; settings: Clostridioides difficile, BAA1870, C. difficile BAA-1870 (NAP1, ribotype 27)
C. difficile BAA-1804 = experiment: MIC, broth microdilution; settings: Clostridioides difficile, BAA1804, C. difficile BAA-1804
C. difficile BAA-1803 = experiment: MIC, broth microdilution; settings: Clostridioides difficile, BAA1803, C. difficile BAA-1803 (NAP1, ribotype 027)
C. difficile BAA-1801 = experiment: MIC, broth microdilution; settings: Clostridioides difficile, BAA1801, C. difficile BAA-1801 (nontoxigenic)
C. difficile BAA-1812 = experiment: MIC, broth microdilution; settings: Clostridioides difficile, BAA1812, C. difficile BAA-1812
C. difficile BAA-1814 = experiment: MIC, broth microdilution; settings: Clostridioides difficile, BAA1814, C. difficile BAA-1814
C. difficile NR49310 = experiment: MIC, broth microdilution; settings: Clostridioides difficile, C. difficile NR49310 (NAP7, ribotype 078)
C. difficile NR49294 = experiment: MIC, broth microdilution; settings: Clostridioides difficile, C. difficile NR49294 (NAP4, ribotype 014)
C. difficile NR49305 = experiment: MIC, broth microdilution; settings: Clostridioides difficile, C. difficile NR49305 (NAP6, ribotype 002)
C. difficile NR49318 = experiment: MIC, broth microdilution; settings: Clostridioides difficile, C. difficile NR49318 (NAP11, ribotype 106)
C. difficile NR49292 = experiment: MIC, broth microdilution; settings: Clostridioides difficile, C. difficile NR49292 (NAP2, ribotype 001_072)
C. difficile NR49302 = experiment: MIC, broth microdilution; settings: Clostridioides difficile, C. difficile NR49302 (NAP4, ribotype 020)
[1] = tested on: Bacteroides fragilis HM-709; experiment: MIC against common gut bacteria; settings: HM709; Bacteroides fragilis HM-709; read-out: MIC
Bacteroides fragilis = experiment: MIC against common gut bacteria; settings: read-out: MIC
Bacteroides ovatus = experiment: MIC against common gut bacteria; settings: read-out: MIC
Bacteroides vulgatus = experiment: MIC against common gut bacteria; settings: Phocaeicola vulgatus; Bacteroides vulgatus; read-out: MIC
Bacteroides eggerthii = experiment: MIC against common gut bacteria; settings: read-out: MIC
Bacteroides caccae = experiment: MIC against common gut bacteria; settings: read-out: MIC
[2] = tested on: Bifidobacterium longum HM-846; experiment: MIC against common gut bacteria; settings: HM846; Bifidobacterium longum HM-846; read-out: MIC
[3] = tested on: Corynebacterium sp. HM-784; experiment: MIC against common gut bacteria; settings: SP.HM784; Corynebacterium sp. HM-784; incubated aerobically; read-out: MIC
Description: Minimally-inhibitory concentrations. MICs for C. difficile strains and the common gut bacteria were determined using broth microdilution techniques as reported earlier using brucella broth supplemented with hemin and vitamin K or supplemented BHIS broth (Babakhani et al., J Antimicrob Chemother 2013, 68(3), 515). Lactobacillus MRS broth was used for lactobacillus strains. […] All incubations unless specified otherwise were carried out at 24 or 48 h at 37° C. in an anaerobic chamber (Whitley DG250 workstation, Microbiology International, Frederick, MD). Corynebacterium and lactobacillus species were incubated aerobically.

[4] = tested on: Fusobacterium nucleatum HM-992; experiment: MIC against common gut bacteria; settings: HM992; Fusobacterium nucleatum HM-992; read-out: MIC
[5] = tested on: Lactobacillus reuteri HM-102; experiment: MIC against common gut bacteria; settings: for MIC: Limosilactobacillus reuteri, HM102, Lactobacillus reuteri HM-102, read-out: MIC
[6] = tested on: Lactobacillus gasseri HM-644; experiment: MIC against common gut bacteria; settings: for MIC: HM644, Lactobacillus gasseri HM-644, read-out: MIC
Veillonella sp. HM-49 = experiment: MIC against common gut bacteria; settings: for MIC: SP.HM49, Veillonella sp. HM-49, read-out: MIC
Eubacterium sp. HM-178 = experiment: MIC against common gut bacteria; settings: SP.HM178

Work on Oc1ccc(-c2nc(-c3ccc(OC4CCCC4)cc3)no2)cc1 [Compound 2] yielded an MIC (C. difficile ATCC43598; 24 h, read-out: MIC at 24 h) of 1 µg/mL (≈ 3.1 µM), an MIC (C. difficile ATCC43598; 48 h, read-out: MIC at 48 h) of 2 µg/mL (≈ 6.2 µM) and an MIC (C. difficile ATCC43255; 24 h, read-out: MIC at 24 h) of 2 µg/mL (≈ 6.2 µM). It also gave an MIC (C. difficile ATCC43255; 48 h, read-out: MIC at 48 h) of 2 µg/mL (≈ 6.2 µM), an MIC (C. difficile BAA-1870; 24 h, read-out: MIC at 24 h) of 2 µg/mL (≈ 6.2 µM) and an MIC (C. difficile BAA-1870; 48 h, read-out: MIC at 48 h) of 2 µg/mL (≈ 6.2 µM). It also gave an MIC (C. difficile BAA-1804; 24 h, read-out: MIC at 24 h) of 2 µg/mL (≈ 6.2 µM), an MIC (C. difficile BAA-1804; 48 h, read-out: MIC at 48 h) of 2 µg/mL (≈ 6.2 µM) and an MIC (C. difficile BAA-1803; 24 h, read-out: MIC at 24 h) of 1 µg/mL (≈ 3.1 µM). It also gave an MIC (C. difficile BAA-1803; 48 h, read-out: MIC at 48 h) of 2 µg/mL (≈ 6.2 µM), an MIC (C. difficile BAA-1801; 24 h, read-out: MIC at 24 h) of 2 µg/mL (≈ 6.2 µM) and an MIC (C. difficile BAA-1801; 48 h, read-out: MIC at 48 h) of 2 µg/mL (≈ 6.2 µM). For the same compound, the MIC (C. difficile BAA-1812; 24 h, read-out: MIC at 24 h) was 2 µg/mL (≈ 6.2 µM), the MIC (C. difficile BAA-1812; 48 h, read-out: MIC at 48 h) was 2 µg/mL (≈ 6.2 µM) and the MIC (C. difficile BAA-1814; 24 h, read-out: MIC at 24 h) was 2 µg/mL (≈ 6.2 µM). It also gave an MIC (C. difficile BAA-1814; 48 h, read-out: MIC at 48 h) of 2 µg/mL (≈ 6.2 µM), an MIC (C. difficile NR49310; 24 h, read-out: MIC at 24 h) of 2 µg/mL (≈ 6.2 µM) and an MIC (C. difficile NR49310; 48 h, read-out: MIC at 48 h) of 4 µg/mL (≈ 12.4 µM). The MIC (C. difficile NR49294; 24 h, read-out: MIC at 24 h) was 1 µg/mL (≈ 3.1 µM), the MIC (C. difficile NR49294; 48 h, read-out: MIC at 48 h) was 2 µg/mL (≈ 6.2 µM) and the MIC (C. difficile NR49305; 24 h, read-out: MIC at 24 h) was 2 µg/mL (≈ 6.2 µM). For the same compound, the MIC (C. difficile NR49305; 48 h, read-out: MIC at 48 h) was 2 µg/mL (≈ 6.2 µM), the MIC (C. difficile NR49318; 24 h, read-out: MIC at 24 h) was 2 µg/mL (≈ 6.2 µM) and the MIC (C. difficile NR49318; 48 h, read-out: MIC at 48 h) was 4 µg/mL (≈ 12.4 µM). It also gave an MIC (C. difficile NR49292; 24 h, read-out: MIC at 24 h) of 1 µg/mL (≈ 3.1 µM), an MIC (C. difficile NR49292; 48 h, read-out: MIC at 48 h) of 2 µg/mL (≈ 6.2 µM) and an MIC (C. difficile NR49302; 24 h, read-out: MIC at 24 h) of 2 µg/mL (≈ 6.2 µM). For the same compound, the MIC (C. difficile NR49302; 48 h, read-out: MIC at 48 h) was 2 µg/mL (≈ 6.2 µM), the MIC [1] was 1 µg/mL (≈ 3.1 µM) and the MIC (Bacteroides fragilis) was 2 µg/mL (≈ 6.2 µM). It also gave an MIC (Bacteroides ovatus) of 2 µg/mL (≈ 6.2 µM), an MIC (Bacteroides vulgatus) of 2 µg/mL (≈ 6.2 µM) and an MIC (Bacteroides eggerthii) of 1 µg/mL (≈ 3.1 µM). For the same compound, the MIC (Bacteroides caccae) was 2 µg/mL (≈ 6.2 µM), the MIC [2] was 1 µg/mL (≈ 3.1 µM) and the MIC [3] was 0.5 µg/mL (≈ 1.55 µM). The MIC [4] was 2 µg/mL (≈ 6.2 µM), the MIC [5] was over 128 µg/mL and the “Activity against Lactobacillus reuteri” value ([5]; in words) was “not active”. For the same compound, the MIC [6] was over 128 µg/mL, the “Activity against Lactobacillus gasseri” value ([6]; in words) was “not active” and the MIC (Veillonella sp. HM-49) was over 128 µg/mL. The “Activity against Veillonella sp.” value (Veillonella sp. HM-49; in words) was “not active” and the MIC (Eubacterium sp. HM-178) was 4 µg/mL (≈ 12.4 µM).
Compound CCc1c(Cl)c(O)c(Cl)c(O)c1C(=O)O[C@H]1[C@H](O)[C@H](OC)[C@H](OC/C2=C\C=C\C[C@H](O)/C(C)=C/[C@H](CC)[C@@H](O[C@@H]3OC(C)(C)[C@@H](OC(=O)C(C)C)[C@H](O)[C@@H]3O)/C(C)=C/C(C)=C/C[C@@H]([C@@H](C)O)OC2=O)O[C@@H]1C [fidaxomicin] has an MIC (C. difficile ATCC43598; 24 h, read-out: MIC at 24 h) of 0.01 µg/mL (≈ 0.00945 µM), an MIC (C. difficile ATCC43598; 48 h, read-out: MIC at 48 h) of 0.01 µg/mL (≈ 0.00945 µM) and an MIC (C. difficile ATCC43255; 24 h, read-out: MIC at 24 h) of 0.01 µg/mL (≈ 0.00945 µM). It also gave an MIC (C. difficile ATCC43255; 48 h, read-out: MIC at 48 h) of 0.01 µg/mL (≈ 0.00945 µM), an MIC (C. difficile BAA-1870; 24 h, read-out: MIC at 24 h) of under 0.25 µg/mL and an MIC (C. difficile BAA-1870; 48 h, read-out: MIC at 48 h) of 0.25 µg/mL (≈ 0.236 µM). For the same compound, the MIC (C. difficile BAA-1804; 24 h, read-out: MIC at 24 h) was under 0.25 µg/mL, the MIC (C. difficile BAA-1804; 48 h, read-out: MIC at 48 h) was under 0.25 µg/mL and the MIC (C. difficile BAA-1803; 24 h, read-out: MIC at 24 h) was 0.5 µg/mL (≈ 0.473 µM). It also gave an MIC (C. difficile BAA-1803; 48 h, read-out: MIC at 48 h) of 1 µg/mL (≈ 0.945 µM), an MIC (C. difficile BAA-1801; 24 h, read-out: MIC at 24 h) of 0.03 µg/mL (≈ 0.0284 µM) and an MIC (C. difficile BAA-1801; 48 h, read-out: MIC at 48 h) of 0.125 µg/mL (≈ 0.118 µM). It also gave an MIC (C. difficile BAA-1812; 24 h, read-out: MIC at 24 h) of 0.015 µg/mL (≈ 0.0142 µM), an MIC (C. difficile BAA-1812; 48 h, read-out: MIC at 48 h) of 0.125 µg/mL (≈ 0.118 µM) and an MIC (C. difficile BAA-1814; 24 h, read-out: MIC at 24 h) of at most 0.01 µg/mL. It also gave an MIC (C. difficile BAA-1814; 48 h, read-out: MIC at 48 h) of 0.03 µg/mL (≈ 0.0284 µM), an MIC (C. difficile NR49310; 24 h, read-out: MIC at 24 h) of at most 0.01 µg/mL and an MIC (C. difficile NR49310; 48 h, read-out: MIC at 48 h) of at most 0.01 µg/mL. For the same compound, the MIC (C. difficile NR49294; 24 h, read-out: MIC at 24 h) was at most 0.01 µg/mL, the MIC (C. difficile NR49294; 48 h, read-out: MIC at 48 h) was 0.01 µg/mL (≈ 0.00945 µM) and the MIC (C. difficile NR49305; 24 h, read-out: MIC at 24 h) was 0.01 µg/mL (≈ 0.00945 µM). It also gave an MIC (C. difficile NR49305; 48 h, read-out: MIC at 48 h) of 0.01 µg/mL (≈ 0.00945 µM), an MIC (C. difficile NR49318; 24 h, read-out: MIC at 24 h) of 0.25 µg/mL (≈ 0.236 µM) and an MIC (C. difficile NR49318; 48 h, read-out: MIC at 48 h) of 0.125 µg/mL (≈ 0.118 µM). The MIC (C. difficile NR49292; 24 h, read-out: MIC at 24 h) was 0.25 µg/mL (≈ 0.236 µM), the MIC (C. difficile NR49292; 48 h, read-out: MIC at 48 h) was 0.5 µg/mL (≈ 0.473 µM) and the MIC (C. difficile NR49302; 24 h, read-out: MIC at 24 h) was 0.03 µg/mL (≈ 0.0284 µM). For the same compound, the MIC (C. difficile NR49302; 48 h, read-out: MIC at 48 h) was 0.03 µg/mL (≈ 0.0284 µM), the MIC [1] was over 32 µg/mL and the MIC (Bacteroides fragilis) was over 32 µg/mL. The MIC (Bacteroides ovatus) was over 32 µg/mL, the MIC (Bacteroides vulgatus) was over 32 µg/mL and the MIC (Bacteroides eggerthii) was over 32 µg/mL. It also gave an MIC (Bacteroides caccae) of over 32 µg/mL, an MIC [2] of under 0.01 µg/mL and an MIC [3] of under 0.06 µg/mL. It also gave an MIC [4] of under 0.06 µg/mL, an MIC [5] of over 32 µg/mL and an MIC [6] of 2 µg/mL (≈ 1.89 µM). For the same compound, the MIC (Veillonella sp. HM-49) was 8 µg/mL (≈ 7.56 µM) and the MIC (Eubacterium sp. HM-178) was 16 µg/mL (≈ 15.1 µM).
